pKd: −log10 of the molar value. Like-named read-outs stand apart in the source and are kept apart here.
Columns and labels:
Experiment in all cases: Bayesian MWC-type model fits to combined patch-clamp fluorometry data
Type in all cases: biochemical
Details in all cases: for Kd: read-out: KA (intrinsic binding affinity to the closed state) (converted)
[1] = molecular target: T1, Kir6.2*-GFP + SUR-K205A (Homo sapiens, UniProt Q14654)
T1 construct: ANAP labelling is specific and only full-length Kir6.2 is expressed at the cell membrane; expressed in transfected cells; host or cells: HEK-293T
T1 sequence (Q14654 whole entry, stated change not applied): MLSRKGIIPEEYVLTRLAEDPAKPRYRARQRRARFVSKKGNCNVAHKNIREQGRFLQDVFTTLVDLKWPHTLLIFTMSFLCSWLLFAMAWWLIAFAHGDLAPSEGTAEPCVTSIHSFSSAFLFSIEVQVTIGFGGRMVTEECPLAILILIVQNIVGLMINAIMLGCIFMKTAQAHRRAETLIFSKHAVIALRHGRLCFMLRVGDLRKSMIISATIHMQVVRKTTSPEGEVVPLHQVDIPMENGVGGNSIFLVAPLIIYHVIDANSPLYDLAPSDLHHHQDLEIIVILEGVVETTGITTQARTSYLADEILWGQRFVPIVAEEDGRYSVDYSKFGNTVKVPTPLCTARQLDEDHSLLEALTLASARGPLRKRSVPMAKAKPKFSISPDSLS
T1 sequence (Q09428 whole entry K205A partner): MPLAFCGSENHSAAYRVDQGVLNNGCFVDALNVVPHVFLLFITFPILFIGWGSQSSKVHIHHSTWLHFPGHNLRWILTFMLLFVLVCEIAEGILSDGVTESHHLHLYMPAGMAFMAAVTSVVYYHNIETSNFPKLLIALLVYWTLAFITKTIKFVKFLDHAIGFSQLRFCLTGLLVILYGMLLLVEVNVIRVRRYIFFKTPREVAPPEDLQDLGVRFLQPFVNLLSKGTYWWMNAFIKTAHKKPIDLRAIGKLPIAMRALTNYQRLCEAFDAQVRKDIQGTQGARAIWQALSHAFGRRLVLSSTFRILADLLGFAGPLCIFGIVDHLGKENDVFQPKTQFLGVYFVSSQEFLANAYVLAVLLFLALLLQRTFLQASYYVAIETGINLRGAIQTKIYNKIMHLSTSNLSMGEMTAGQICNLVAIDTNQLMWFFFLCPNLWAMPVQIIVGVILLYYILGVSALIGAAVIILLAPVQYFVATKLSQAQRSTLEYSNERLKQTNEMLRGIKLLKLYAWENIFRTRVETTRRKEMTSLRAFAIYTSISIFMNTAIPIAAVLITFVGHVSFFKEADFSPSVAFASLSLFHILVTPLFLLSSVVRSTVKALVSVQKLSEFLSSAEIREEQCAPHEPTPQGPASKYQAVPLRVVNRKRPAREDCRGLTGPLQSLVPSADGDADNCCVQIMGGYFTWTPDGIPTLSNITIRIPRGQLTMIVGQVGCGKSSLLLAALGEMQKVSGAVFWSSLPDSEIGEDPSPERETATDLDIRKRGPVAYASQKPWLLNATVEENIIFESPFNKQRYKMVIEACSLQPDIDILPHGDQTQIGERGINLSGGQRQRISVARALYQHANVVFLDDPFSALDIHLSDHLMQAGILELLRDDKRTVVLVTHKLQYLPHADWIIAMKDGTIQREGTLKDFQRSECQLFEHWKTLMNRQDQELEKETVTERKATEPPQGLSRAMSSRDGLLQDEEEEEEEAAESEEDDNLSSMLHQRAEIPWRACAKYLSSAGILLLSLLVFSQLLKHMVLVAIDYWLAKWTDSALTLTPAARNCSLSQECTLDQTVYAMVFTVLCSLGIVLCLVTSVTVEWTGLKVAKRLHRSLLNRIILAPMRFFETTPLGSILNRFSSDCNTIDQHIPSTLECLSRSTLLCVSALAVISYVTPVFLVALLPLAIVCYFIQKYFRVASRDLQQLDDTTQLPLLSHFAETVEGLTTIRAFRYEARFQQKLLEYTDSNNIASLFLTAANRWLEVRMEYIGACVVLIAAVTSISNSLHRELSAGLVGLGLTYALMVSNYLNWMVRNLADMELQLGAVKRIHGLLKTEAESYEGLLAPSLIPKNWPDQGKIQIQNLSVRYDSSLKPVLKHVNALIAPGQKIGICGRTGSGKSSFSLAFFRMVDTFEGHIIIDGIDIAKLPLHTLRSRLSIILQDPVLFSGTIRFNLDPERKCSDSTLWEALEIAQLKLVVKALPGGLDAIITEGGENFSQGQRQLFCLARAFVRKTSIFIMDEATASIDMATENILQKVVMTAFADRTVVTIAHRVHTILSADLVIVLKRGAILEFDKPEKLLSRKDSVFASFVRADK
Text: (§1) Our simultaneous binding and current measurements were well fit with a Monod-Wyman-Changeux (MWC)-type model (Figure 2D,E; [Monod et al., 1965]) which has been previously proposed to explain KATP channel inhibition ([Enkvetchakul and Nichols, 2003]; [Craig et al., 2008]; [Vedovato et al., 2015]). In our MWC-type model, each ligand binding event ( KA ) is independent and each bound ligand favours the closed state by the same factor ( D ). Simultaneous measurement of binding (fluorescence) and gating (current) allowed us to obtain well constrained fits to our model. To obtain free parameter ( L , KA , D ) estimates and verify that each parameter was well and uniquely determined, we employed a Bayesian Markov chain Monte Carlo (MCMC) method previously employed by [Hines et al. (2014)]. Using this approach, we constructed posterior probability distributions for the free parameters of our MWC-type model (Figure 2F, Table 3). […] Our estimate of L was quite low and broadly distributed. We repeated our fits with L fixed to a value consistent with previous single channel measurements (0.8, Popen=0.45; [John et al., 1998]; [Enkvetchakul et al., 2000]; [Ribalet et al., 2006]). This had only a very small effect on our estimates of D and KA (Figure 2—figure supplement 1). The broad distribution of L in our fit may represent current rundown which occurs during our patch-clamp recordings and is expected to affect the open-closed equilibrium.
(§2) In addition to the full MWC-type model we considered alternate models (Figure 2—figure supplement 2). These included a model in which only the first binding event influences the open-closed equilibrium of the channel (single-binding model; Figure 2—figure supplement 2B, Table 3), and an MWC-style model with an additional parameter C to allow for direct negative cooperativity between binding sites (negative cooperativity model; Figure 2—figure supplement 2C, Table 3). The single-binding model yielded very similar parameter estimates to our full MWC-type model (Figure 2—figure supplement 2D, Table 3). This is a consequence of D being so low that even in the MWC-type model most channels are closed when only a single nucleotide is bound. The cooperative model improved our fits, but not enough to justify the inclusion of an additional free parameter (see Discussion).
(§3) The MWC-type models considered (Figure 2 and Figure 2—figure supplement 2) were formulated as follows:(3) F/Fmax=KA[TNPATP](1+KA[TNPATP])^3+LDKA[TNPATP](1+DKA[TNPATP])^3/(1+KA[TNPATP])^4+L(1+DKA[TNPATP])^4 (4) open channels/total channels=L(1+DKA[TNPATP])^4/(1+KA[TNPATP])^4+L(1+DKA[TNPATP])^4
(§4) The first was similar to the MWC-type model, except that the channels close after one molecule of TNP-ATP binding with subsequent binding events having no effect.(7) F/Fmax=LDKA[TNPATP](1+3KA[TNPATP]+3KA2[TNPATP]^2+KA3[TNPATP]^3)+KA[TNPATP](1+KA[TNPATP])^3/L(1+4DKA[TNPATP]+6DKA2[TNPATP]^2+4DKA3[TNPATP]^3+DKA4[TNPATP]^4)+(1+KA[TNPATP])^4 (8) I/Imax=L(1+4DKA[TNPATP]+6DKA2[TNPATP]^2+4DKA3[TNPATP]^3+DKA4[TNPATP]^4)/L(1+4DKA[TNPATP]+6DKA2[TNPATP]^2+4DKA3[TNPATP]^3+DKA4[TNPATP]^4)+(1+KA[TNPATP])^4⋅1+L/L
(§5) The second alternate model was the same as the full MWC model, but with an additional term C describing binding cooperativity between Kir6.2 subunits.(9) F/Fmax=LDKA[TNPATP](1+3CDKA[TNPATP]+3C^2D^2KA2[TNPATP]^2+C^3D^3KA3[TNPATP]^3)+KA[TNPATP](1+3CKA[TNPATP])+3C^2KA2[TNPATP]^2+C^3KA3[TNPATP]^3)/L(1+4DKA[TNPATP]+6CD^2KA2[TNPATP]^2+4C^2D^3KA3[TNPATP]^3+C^3D^4KA4[TNPATP]^4)+1+4KA[TNPATP]+6CKA2[TNPATP]^2+4C^2KA3[TNPATP]^3+C^3KA4[TNPATP]^4 (10) I/Imax=L(1+4DKA[TNPATP]+6CD^2KA2[TNPATP]^2+4C^2D^3KA3[TNPATP]^3+C^3D^4KA4[TNPATP]^4)/L(1+4DKA[TNPATP]+6CD^2KA2[TNPATP]^2+4C^2D^3KA3[TNPATP]^3+C^3D^4KA4[TNPATP]^4)+1+4KA[TNPATP]+6C^2KA2[TNPATP]^2+4C^2KA3[TNPATP]^3+C^3KA4[TNPATP]^4⋅1+L/L […]

[2] = molecular target: T2, Kir6.2*-GFP + SUR-K205E (Homo sapiens, UniProt Q14654)
T2 construct: ANAP labelling is specific and only full-length Kir6.2 is expressed at the cell membrane; expressed in transfected cells; host or cells: HEK-293T
T2 sequence (Q14654 whole entry, stated change not applied): as the sequence (Q14654 whole entry, stated change not applied) above
T2 sequence (Q09428 whole entry K205E partner): as the sequence (Q09428 whole entry K205A partner) above, with A205E counted along it
Text: as §1, §2, §3, §4, §5

[3] = molecular target: Kir6.2-GFP + SUR1 (Homo sapiens, UniProt Q14654); design: full length, fully ANAP-labelled Kir6.2 protein was produced and successfully trafficked to the membrane in the presence of SUR1; expressed in transfected cells; host or cells: HEK-293T
Kir6.2-GFP + SUR1, sequence (Q14654 whole entry): as the sequence (Q14654 whole entry, stated change not applied) above
Kir6.2-GFP + SUR1, sequence (Q09428 whole entry partner): as the sequence (Q09428 whole entry K205A partner) above, with A205K counted along it
Text: as §1, §2, §3, §4, §5

[4] = Full MWC model, median estimate
[5] = Single-site (single-binding) model

Nc1ncnc2c1ncn2[C@@H]1O[C@H](COP(=O)(O)OP(=O)(O)OP(=O)(O)O)[C@H]2OC3(O[C@H]21)C([N+](=O)[O-])=CC(=[N+]([O-])[O-])C=C3[N+](=O)[O-] (some centres unmarked) [TNP-ATP, trinitrophenyl-ATP]
D (factor by which nucleotide binding favours channel closure) [1, 4]: 0.55 | L (unliganded open-closed equilibrium constant) [1, 4]: −0.37 log10 | Kd [1, 4]: 174 µM | C (binding cooperativity between Kir6.2 subunits) ([1]; Negative cooperativity model): 0.35 | D (factor by which nucleotide binding favours channel closure) ([1]; Negative cooperativity model): 0.52 | L (unliganded open-closed equilibrium constant) ([1]; Negative cooperativity model): −0.16 log10 | Kd ([1]; Negative cooperativity model): 79.4 µM | D (factor by which nucleotide binding favours channel closure) [1, 5]: 0.18 | L (unliganded open-closed equilibrium constant) [1, 5]: −0.25 log10 | Kd [1, 5]: 240 µM | D (factor by which nucleotide binding favours channel closure) [2, 4]: 0.62 | L (unliganded open-closed equilibrium constant) [2, 4]: −0.18 log10 | Kd [2, 4]: 398 µM | C (binding cooperativity between Kir6.2 subunits) ([2]; Negative cooperativity model): 0.45 | D (factor by which nucleotide binding favours channel closure) ([2]; Negative cooperativity model): 0.58 | Kd ([2]; Negative cooperativity model): 195 µM | D (factor by which nucleotide binding favours channel closure) [2, 5]: 0.30 | L (unliganded open-closed equilibrium constant) [2, 5]: −0.19 log10 | Kd [2, 5]: 490 µM | KA ([3]; Full MWC model, PCF, inhibitory site on Kir6.2): 21000 M⁻¹ | pKd ([3]; Full MWC model, from KA, read-out: KD): 4.32 | L ([3]; Full MWC model, linear value): 0.09 | D (factor by which nucleotide binding favours channel closure) [3, 4]: 0.04 | L (unliganded open-closed equilibrium constant) [3, 4]: −1.05 log10 | Popen ([3]; Full MWC model, unliganded, from L): 0.08 | C (binding cooperativity between Kir6.2 subunits) ([3]; Negative cooperativity model): 0.17 | D (factor by which nucleotide binding favours channel closure) ([3]; Negative cooperativity model): 0.15 | L (unliganded open-closed equilibrium constant) ([3]; Negative cooperativity model): −0.42 log10 | Kd ([3]; Negative cooperativity model): 15.1 µM | D (factor by which nucleotide binding favours channel closure) [3, 5]: 0.05 | L (unliganded open-closed equilibrium constant) [3, 5]: −1.06 log10 | Kd [3, 5]: 46.8 µM

Source: PMC7004565, “Nucleotide inhibition of the pancreatic ATP-sensitive K^+ channel explored with patch-clamp fluorometry” (eLife, 2020)
